# Columns and labels:
# Human δ-opioid (DOP) = molecular target: T1, Human δ-opioid (DOP) (Homo sapiens, UniProt P41143); experiment: Radioligand binding, human δ-opioid (DOP) membranes, FlashPlate, [3H]-Bremazocine; conditions: compound at 10 μM, [3H]-Bremazocine
# T1 construct: purchased Perkin Elmer Biosignal
# Procedure, shortened: (§1)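 Cloned human receptor membranes were coated onto FlashPlate wells and incubated with radioligand and compound (added from a 0.5 mM DMSO daughter plate) for 1 hour at room temperature in the dark. Scintillation counting gave percent inhibition, with DMSO defining total and reference ligand defining non-specific binding.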
# Human κ-Opioid (KOP) = molecular target: T2, Human κ-Opioid (KOP) (Homo sapiens, UniProt P41145); experiment: Radioligand binding, human κ-opioid (KOP) membranes, filtration, [3H]-Diprenorphine; conditions: compound at 10 μM, [3H]-Diprenorphine
# T2 construct: purchased Perkin Elmer Biosignal
# T2 sequence (P41145 whole entry): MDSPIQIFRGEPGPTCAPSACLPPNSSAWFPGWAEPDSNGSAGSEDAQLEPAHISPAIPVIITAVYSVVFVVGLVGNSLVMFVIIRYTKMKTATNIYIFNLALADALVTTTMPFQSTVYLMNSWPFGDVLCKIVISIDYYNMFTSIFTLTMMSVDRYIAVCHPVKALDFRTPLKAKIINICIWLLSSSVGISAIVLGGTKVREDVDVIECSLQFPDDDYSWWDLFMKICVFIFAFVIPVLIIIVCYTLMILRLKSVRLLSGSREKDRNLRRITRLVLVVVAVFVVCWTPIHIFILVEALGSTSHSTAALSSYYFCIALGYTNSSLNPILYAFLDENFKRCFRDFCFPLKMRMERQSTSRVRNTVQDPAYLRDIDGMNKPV
# Procedure, shortened: (§2)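 Membranes from cloned human receptors were incubated with compound and radioligand for 1 hour at room temperature. Bound ligand was collected on 0.3% PEI-soaked filters, washed with cold 50 mM Tris-HCl pH 7.4, and counted by scintillation. Percent inhibition was computed against DMSO totals and reference-ligand nonspecific wells.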
# Human Melanocortin (MC3) = molecular target: T3, Human Melanocortin (MC3) (Homo sapiens, UniProt P41968); experiment: Radioligand binding, human melanocortin MC3 membranes, FlashPlate, [125I]-NDP-αMSH; conditions: compound at 10 μM, [125I]-NDP-αMSH
# T3 construct: purchased Perkin Elmer Biosignal
# T3 sequence (P41968 whole entry): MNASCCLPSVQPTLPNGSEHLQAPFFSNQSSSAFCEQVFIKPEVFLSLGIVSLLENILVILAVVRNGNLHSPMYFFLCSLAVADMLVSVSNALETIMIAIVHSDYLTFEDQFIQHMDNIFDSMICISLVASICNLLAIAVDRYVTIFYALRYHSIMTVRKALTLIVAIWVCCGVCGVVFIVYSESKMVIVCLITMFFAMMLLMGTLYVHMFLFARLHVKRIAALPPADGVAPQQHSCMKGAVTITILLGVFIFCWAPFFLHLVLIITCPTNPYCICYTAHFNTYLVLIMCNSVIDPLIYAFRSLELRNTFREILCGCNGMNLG
# Procedure, shortened: as §1
# Human Melanocortin (MC4) = molecular target: T4, Human Melanocortin (MC4) (Homo sapiens, UniProt P32245); experiment: Radioligand binding, human melanocortin MC4 membranes, FlashPlate, [125I]-NDP-αMSH; conditions: compound at 10 μM, [125I]-NDP-αMSH
# T4 construct: purchased Perkin Elmer Biosignal
# T4 sequence (P32245 whole entry): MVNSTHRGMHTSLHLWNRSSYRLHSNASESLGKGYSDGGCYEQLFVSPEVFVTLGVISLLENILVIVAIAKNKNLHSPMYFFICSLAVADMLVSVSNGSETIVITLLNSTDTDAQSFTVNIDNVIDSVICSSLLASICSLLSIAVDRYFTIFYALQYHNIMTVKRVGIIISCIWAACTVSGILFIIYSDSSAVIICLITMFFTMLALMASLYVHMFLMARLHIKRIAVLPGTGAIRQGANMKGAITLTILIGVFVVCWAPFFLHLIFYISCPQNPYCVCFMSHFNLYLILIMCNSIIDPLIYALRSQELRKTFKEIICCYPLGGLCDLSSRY
# Procedure, shortened: as §1
# Human melanocortin (MC5) = molecular target: T5, Human melanocortin (MC5) (Homo sapiens, UniProt P33032); experiment: Radioligand binding, human melanocortin MC5 membranes, FlashPlate, [125I]-NDP-αMSH; conditions: compound at 10 μM, [125I]-NDP-αMSH
# T5 construct: purchased Perkin Elmer Biosignal
# T5 sequence (P33032 whole entry): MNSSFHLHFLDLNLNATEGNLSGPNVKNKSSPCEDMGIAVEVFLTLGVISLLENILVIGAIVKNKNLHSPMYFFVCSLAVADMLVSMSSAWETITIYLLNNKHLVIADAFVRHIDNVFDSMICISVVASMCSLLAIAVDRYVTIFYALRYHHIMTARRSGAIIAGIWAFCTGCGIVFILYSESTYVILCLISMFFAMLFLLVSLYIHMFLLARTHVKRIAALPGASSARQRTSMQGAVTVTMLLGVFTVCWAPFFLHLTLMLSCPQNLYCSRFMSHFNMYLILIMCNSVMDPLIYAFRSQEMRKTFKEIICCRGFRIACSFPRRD
# Procedure, shortened: as §1
# [1] = molecular target: T6, Human melanin-concentrating hormone (MCH1) (Homo sapiens, UniProt Q99705); experiment: Radioligand binding, human melanin-concentrating hormone MCH1 membranes, FlashPlate, [125I]-S36057; conditions: compound at 10 μM; for A6: inhibition of radioligand binding, human melanin-concentrating hormone (MCH1): [125I]-S36057
# T6 construct: purchased Perkin Elmer Biosignal
# T6 sequence (Q99705 whole entry): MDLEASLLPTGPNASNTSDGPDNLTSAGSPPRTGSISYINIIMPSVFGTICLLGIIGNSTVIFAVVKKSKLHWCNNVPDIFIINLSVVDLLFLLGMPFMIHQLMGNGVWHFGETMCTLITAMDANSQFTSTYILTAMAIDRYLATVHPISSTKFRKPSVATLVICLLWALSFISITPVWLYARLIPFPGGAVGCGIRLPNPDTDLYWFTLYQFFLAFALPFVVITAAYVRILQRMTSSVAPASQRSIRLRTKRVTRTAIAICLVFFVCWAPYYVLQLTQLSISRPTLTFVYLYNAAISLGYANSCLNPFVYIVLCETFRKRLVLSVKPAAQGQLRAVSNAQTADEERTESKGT
# Procedure, shortened: as §1
# Human μ-opioid (MOP) = molecular target: T7, Human μ-opioid (MOP) (Homo sapiens, UniProt P35372); experiment: Radioligand binding, human μ-opioid (MOP) membranes, FlashPlate, [3H]-Naloxone; conditions: compound at 10 μM, [3H]-Naloxone
# T7 construct: purchased Perkin Elmer Biosignal
# T7 sequence (P35372 whole entry): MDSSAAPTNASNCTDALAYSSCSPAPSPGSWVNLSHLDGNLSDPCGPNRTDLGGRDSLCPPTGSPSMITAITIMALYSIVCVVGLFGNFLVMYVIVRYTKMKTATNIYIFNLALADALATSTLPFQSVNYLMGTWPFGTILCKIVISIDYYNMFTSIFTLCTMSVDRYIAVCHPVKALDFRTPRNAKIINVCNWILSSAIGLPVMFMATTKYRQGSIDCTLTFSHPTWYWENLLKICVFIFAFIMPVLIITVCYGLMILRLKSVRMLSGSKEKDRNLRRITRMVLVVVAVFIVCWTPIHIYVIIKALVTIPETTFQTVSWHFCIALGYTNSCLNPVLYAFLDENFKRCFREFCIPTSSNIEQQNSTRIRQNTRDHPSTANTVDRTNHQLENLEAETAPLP
# Procedure, shortened: as §1
# Human neurokinin (NK1) = molecular target: T8, Human neurokinin (NK1) (Homo sapiens, UniProt P25103); experiment: Radioligand binding, human neurokinin NK1 membranes, filtration, [125I]-Substance P; conditions: compound at 10 μM, [125I]-Substance P
# T8 construct: purchased Perkin Elmer Biosignal
# T8 sequence (P25103 whole entry): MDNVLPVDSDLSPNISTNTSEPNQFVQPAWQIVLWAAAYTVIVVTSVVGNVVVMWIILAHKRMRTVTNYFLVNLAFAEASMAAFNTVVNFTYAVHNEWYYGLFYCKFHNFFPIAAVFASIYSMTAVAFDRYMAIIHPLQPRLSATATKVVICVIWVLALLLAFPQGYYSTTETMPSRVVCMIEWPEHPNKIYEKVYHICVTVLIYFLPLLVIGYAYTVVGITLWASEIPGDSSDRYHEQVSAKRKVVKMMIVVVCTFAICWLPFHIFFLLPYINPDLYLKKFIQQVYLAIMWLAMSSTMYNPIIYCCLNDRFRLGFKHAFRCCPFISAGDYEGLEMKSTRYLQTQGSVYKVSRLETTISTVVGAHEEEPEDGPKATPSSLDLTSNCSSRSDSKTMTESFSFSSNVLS
# Procedure, shortened: as §2
# [2] = molecular target: T9, Human neuropeptide Y (NPY-Y1) (Homo sapiens, UniProt P25929); experiment: Radioligand binding, human neuropeptide Y NPY-Y1 membranes, FlashPlate, [125I]-PYY; conditions: compound at 10 μM, [125I]-PYY
# T9 construct: purchased Perkin Elmer Biosignal
# T9 sequence (P25929 1-384): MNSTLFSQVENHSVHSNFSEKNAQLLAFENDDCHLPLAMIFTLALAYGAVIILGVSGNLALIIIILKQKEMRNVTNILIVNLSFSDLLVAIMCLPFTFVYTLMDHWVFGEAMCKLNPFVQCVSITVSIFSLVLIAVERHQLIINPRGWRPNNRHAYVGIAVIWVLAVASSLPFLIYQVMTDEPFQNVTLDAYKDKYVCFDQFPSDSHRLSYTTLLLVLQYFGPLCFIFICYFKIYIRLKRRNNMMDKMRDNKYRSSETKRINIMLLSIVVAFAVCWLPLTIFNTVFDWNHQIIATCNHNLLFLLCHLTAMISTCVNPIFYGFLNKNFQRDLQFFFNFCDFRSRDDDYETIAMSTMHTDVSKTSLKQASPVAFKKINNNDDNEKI
# Procedure, shortened: as §1
# Human opioid (ORL1) = molecular target: T10, Human opioid (ORL1) (Homo sapiens, UniProt P41146); experiment: Radioligand binding, human opioid ORL1 membranes, FlashPlate, [125I]-Nociceptin; conditions: compound at 10 μM, [125I]-Nociceptin
# T10 construct: purchased Perkin Elmer Biosignal
# T10 sequence (P41146 whole entry): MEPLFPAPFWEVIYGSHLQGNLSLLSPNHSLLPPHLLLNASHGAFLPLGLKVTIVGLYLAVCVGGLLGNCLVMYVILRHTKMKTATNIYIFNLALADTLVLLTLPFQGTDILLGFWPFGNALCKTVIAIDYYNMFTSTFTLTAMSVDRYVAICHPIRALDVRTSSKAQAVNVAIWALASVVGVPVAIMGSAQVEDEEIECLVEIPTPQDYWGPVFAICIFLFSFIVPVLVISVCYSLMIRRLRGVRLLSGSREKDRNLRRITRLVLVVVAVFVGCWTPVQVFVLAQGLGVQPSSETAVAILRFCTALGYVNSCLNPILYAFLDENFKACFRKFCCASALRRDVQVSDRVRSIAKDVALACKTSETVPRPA
# Procedure, shortened: as §1
# Mouse urotensin (mUR2) = molecular target: T11, Mouse urotensin (mUR2) (Mus musculus, UniProt Q8VIH9); experiment: Radioligand binding, mouse urotensin mUR2 membranes, FlashPlate, [125I]-Urotensin II; conditions: compound at 10 μM, [125I]-Urotensin II
# T11 construct: purchased Perkin Elmer Biosignal
# T11 sequence (Q8VIH9 1-385): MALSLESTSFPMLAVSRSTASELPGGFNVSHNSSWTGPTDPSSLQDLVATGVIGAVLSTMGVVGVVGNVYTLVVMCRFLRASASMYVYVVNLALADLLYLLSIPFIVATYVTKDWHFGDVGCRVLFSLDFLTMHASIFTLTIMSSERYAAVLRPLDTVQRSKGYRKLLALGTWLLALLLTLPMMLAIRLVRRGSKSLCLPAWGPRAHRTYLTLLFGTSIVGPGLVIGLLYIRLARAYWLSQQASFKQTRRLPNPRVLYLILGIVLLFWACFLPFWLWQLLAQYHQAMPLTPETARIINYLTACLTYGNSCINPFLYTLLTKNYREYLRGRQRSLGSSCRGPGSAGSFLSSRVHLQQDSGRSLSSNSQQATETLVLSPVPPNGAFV
# Procedure, shortened: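 Cloned mouse urotensin (mUR2) receptor membranes from Perkin Elmer Biosignal were immobilized in FlashPlate microplates using a proprietary coating. Each well got 19.5 μl buffer, then 0.5 μl of DMSO, reference ligand, or compound. Adding 5 μl of [125I]-Urotensin II, diluted to 5× final concentration in binding buffer, started binding. Plates were sealed with TopSeal-A and incubated 1 hour at room temperature in the dark. Wells were counted for 30 seconds each on a TopCount after a 60-second delay, and percentage inhibition was calculated.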
# T1 sequence (P41143 whole entry): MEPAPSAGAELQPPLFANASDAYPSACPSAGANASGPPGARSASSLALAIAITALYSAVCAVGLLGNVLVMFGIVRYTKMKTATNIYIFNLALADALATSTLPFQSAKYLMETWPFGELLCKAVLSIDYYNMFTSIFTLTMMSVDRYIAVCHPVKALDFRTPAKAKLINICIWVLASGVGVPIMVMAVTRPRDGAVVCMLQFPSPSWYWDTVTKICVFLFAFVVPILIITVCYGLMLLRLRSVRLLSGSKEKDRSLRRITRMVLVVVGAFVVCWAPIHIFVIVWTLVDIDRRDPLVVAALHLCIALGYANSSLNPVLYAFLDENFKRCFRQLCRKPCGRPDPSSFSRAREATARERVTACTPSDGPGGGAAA
Structure (SMILES),"A1: inhibition of radioligand binding, human δ-opioid (DOP) (Human δ-opioid (DOP))","A2: inhibition of radioligand binding, human κ-opioid (KOP) (Human κ-Opioid (KOP))","A3: inhibition of radioligand binding, human melanocortin (MC3) (Human Melanocortin (MC3))","A4: inhibition of radioligand binding, human melanocortin (MC4) (Human Melanocortin (MC4))","A5: inhibition of radioligand binding, human melanocortin (MC5) (Human melanocortin (MC5))","A6: inhibition of radioligand binding, human melanin-concentrating hormone (MCH1) [1]","A7: inhibition of radioligand binding, human μ-opioid (MOP) (Human μ-opioid (MOP))","A8: inhibition of radioligand binding, human neurokinin (NK1) (Human neurokinin (NK1))","A9: inhibition of radioligand binding, human neuropeptide Y (NPY-Y1) [2]","A10: inhibition of radioligand binding, human opioid (ORL1) (Human opioid (ORL1))","A11: inhibition of radioligand binding, mouse urotensin (mUR2) (Mouse urotensin (mUR2))",A1: inhibition of radioligand binding (Human δ-opioid (DOP); FlashPlate),A2: inhibition of radioligand binding (Human κ-Opioid (KOP); filtration),A3: inhibition of radioligand binding (Human Melanocortin (MC3); FlashPlate),A4: inhibition of radioligand binding (Human Melanocortin (MC4); FlashPlate),A5: inhibition of radioligand binding (Human melanocortin (MC5); FlashPlate),"A6: inhibition of radioligand binding ([1]; [125I]-S36057, FlashPlate)",A7: inhibition of radioligand binding (Human μ-opioid (MOP); FlashPlate),A8: inhibition of radioligand binding (Human neurokinin (NK1); filtration),A9: inhibition of radioligand binding ([2]; FlashPlate),further results
NCCCC(=O)NC1C(OCc2ccccc2)OC(COCc2ccc3ccccc3c2)C(O)C1OCc1ccccc1 (stereo not shown) [compound 378],− (“−” indicates less than 50% inhibition at 10 μM),− (“−” indicates less than 50% inhibition at 10 μM),− (“−” indicates less than 50% inhibition at 10 μM),+ (“+” indicates greater than 50% inhibition at 10 μM),+ (“+” indicates greater than 50% inhibition at 10 μM),− (“−” indicates less than 50% inhibition at 10 μM),− (“−” indicates less than 50% inhibition at 10 μM),+ (“+” indicates greater than 50% inhibition at 10 μM),− (“−” indicates less than 50% inhibition at 10 μM),− (“−” indicates less than 50% inhibition at 10 μM),− (“−” indicates less than 50% inhibition at 10 μM),,,,,,,,,,
COCC1OC(OCc2ccc3ccccc3c2)C(NC(=O)CCCN)C(OCc2ccc(Cl)cc2)C1O (stereo not shown) [compound 239],,,,,,,,,,,,− (“−” indicates less than 50% inhibition at 10 μM),− (“−” indicates less than 50% inhibition at 10 μM),− (“−” indicates less than 50% inhibition at 10 μM),− (“−” indicates less than 50% inhibition at 10 μM),+ (“+” indicates greater than 50% inhibition at 10 μM),− (“−” indicates less than 50% inhibition at 10 μM),− (“−” indicates less than 50% inhibition at 10 μM),+ (“+” indicates greater than 50% inhibition at 10 μM),− (“−” indicates less than 50% inhibition at 10 μM),A10: inhibition of radioligand binding (Human opioid (ORL1); FlashPlate): − (“−” indicates less than 50% inhibition at 10 μM); A11: inhibition of radioligand binding (Mouse urotensin (mUR2); FlashPlate): − (“−” indicates less than 50% inhibition at 10 μM)
CSC1OC(COCc2cccc(N)c2)C(O)C(OCc2ccc(Cl)cc2)C1NC(=O)c1ccccc1 (stereo not shown) [compound 332],− (“−” indicates less than 50% inhibition at 10 μM),− (“−” indicates less than 50% inhibition at 10 μM),− (“−” indicates less than 50% inhibition at 10 μM),− (“−” indicates less than 50% inhibition at 10 μM),− (“−” indicates less than 50% inhibition at 10 μM),− (“−” indicates less than 50% inhibition at 10 μM),− (“−” indicates less than 50% inhibition at 10 μM),+ (“+” indicates greater than 50% inhibition at 10 μM),− (“−” indicates less than 50% inhibition at 10 μM),− (“−” indicates less than 50% inhibition at 10 μM),− (“−” indicates less than 50% inhibition at 10 μM),,,,,,,,,,
"NCCCC(=O)NC1C(OCc2ccc3ccccc3c2)OC(COCc2ccc3ccccc3c2)C(O)C1OCc1ccc(Cl)cc1 (single isomer, unassigned) [compound 454]",,,,,,,,,,,,,,,,,,,,,"A1: inhibition of radioligand binding (Human δ-opioid (DOP); human DOP membranes): − (“−” indicates less than 50% inhibition at 10 μM); A2: inhibition of radioligand binding (Human κ-Opioid (KOP); human KOP membranes, 10 µM): − (“−” indicates less than 50% inhibition at 10 μM); A3: inhibition of radioligand binding (Human Melanocortin (MC3); human MC3 membranes): + (“+” indicates greater than 50% inhibition at 10 μM); A4: inhibition of radioligand binding (Human Melanocortin (MC4); human MC4 membranes): + (“+” indicates greater than 50% inhibition at 10 μM); A5: inhibition of radioligand binding (Human melanocortin (MC5); human MC5 membranes): + (“+” indicates greater than 50% inhibition at 10 μM); A6: inhibition of radioligand binding ([1]; [125I]-S36057, human MCH1 membranes): + (“+” indicates greater than 50% inhibition at 10 μM); A7: inhibition of radioligand binding (Human μ-opioid (MOP); human MOP membranes, 10 µM): + (“+” indicates greater than 50% inhibition at 10 μM); A8: inhibition of radioligand binding (Human neurokinin (NK1); human NK1 membranes): + (“+” indicates greater than 50% inhibition at 10 μM); A9: inhibition of radioligand binding ([2]; human NPY-Y1 membranes): − (“−” indicates less than 50% inhibition at 10 μM); A10: inhibition of radioligand binding (Human opioid (ORL1); human ORL1 membranes, 10 µM): + (“+” indicates greater than 50% inhibition at 10 μM); A11: inhibition of radioligand binding (Mouse urotensin (mUR2); mouse mUR2 membranes): − (“−” indicates less than 50% inhibition at 10 μM)"
COCC1OC(OCCc2ccccc2)C(NC(=O)CN)C(OCc2ccc(Cl)cc2)C1O (stereo not shown) [compound 219],,,,,,,,,,,,− (“−” indicates less than 50% inhibition at 10 μM),− (“−” indicates less than 50% inhibition at 10 μM),− (“−” indicates less than 50% inhibition at 10 μM),− (“−” indicates less than 50% inhibition at 10 μM),+ (“+” indicates greater than 50% inhibition at 10 μM),− (“−” indicates less than 50% inhibition at 10 μM),− (“−” indicates less than 50% inhibition at 10 μM),+ (“+” indicates greater than 50% inhibition at 10 μM),− (“−” indicates less than 50% inhibition at 10 μM),A10: inhibition of radioligand binding (Human opioid (ORL1); FlashPlate): − (“−” indicates less than 50% inhibition at 10 μM); A11: inhibition of radioligand binding (Mouse urotensin (mUR2); FlashPlate): − (“−” indicates less than 50% inhibition at 10 μM)

# From patent US20080009418A1, “Selective Inhibitors” (Alchemia LTD., priority 2004, published 2008)
